# Results from US20110236325A1, “METHODS TO TREAT OR PREVENT A SKIN CONDITION USING A NELL1 PEPTIDE” (NellOne Therapeutics, Inc., priority 2010, published 2011).
# Key:
# EFT-400 tissues [1] = experiment: Sunburned cell counts in UV-irradiated EpiDerm-FT (EFT-400) skin model tissues, H&E histology; type: cell-based, human
# Description: Packaged tissues were stored at 4° C. overnight and then re-equilibrated in EFT-400-ASY medium overnight prior to the start of experiments. The sample size was n=3 for each treatment group in the gene expression experiments; and n=6 (two independent experiments of n=3) for the sunburned cell counts.
# Treated and untreated tissues were exposed to UV irradiation with 200 mJ/cm^2UVB/29.94 mW/cm^2UVA simulated solar UV light (Honle-500 solar lamp).
# (§1) At the conclusion of the 24 hour post-irradiation period, EFT-400 tissues were fixed in 10% formalin for 2 hours at room temperature (two independent experiments with n=3). Formalin fixed tissues were embedded in paraffin and 6 micron slices were stained with haematoxylin and eosin (H&E).
# EFT-400 tissues [2] = experiment: Adverse effects of treatment on EFT-400 tissues (H&E stained histology); conditions: 50 μM in the basolateral medium
# Description: as §1
# EFT-400 tissues [3] = experiment: Gene expression by quantitative PCR custom array in EFT-400 tissues with or without UV irradiation; conditions: for AVG Ct ACTB (housekeeping gene) / AVG Ct AQP3 / AVG Ct BCL2L1 / AVG Ct COL1A1 / AVG Ct COL4A2 / AVG Ct COL5A1 / AVG Ct COL6A1 / AVG Ct COL6A2 / AVG Ct COL7A1 / AVG Ct COL8A1 / AVG Ct COL11A1 / AVG Ct COL12A1 / AVG Ct COL14A1 / AVG Ct COL15A1 / AVG Ct COL16A1 / AVG Ct CYP2E1 / AVG Ct DSG1 / AVG Ct ERCC1 / AVG Ct FN1 / AVG Ct GAPDH (housekeeping gene) / AVG Ct GDF15 / AVG Ct GSTM3 / AVG Ct HSPA8 / AVG Ct IL1A / AVG Ct IL1B / AVG Ct IL8 / AVG Ct KAL1 / AVG Ct KRT16 / AVG Ct LAMA1 / AVG Ct LAMA2 / AVG Ct LAMA3 / AVG Ct LAMA5 / AVG Ct LAMB1 / AVG Ct LAMB3 / AVG Ct LAMC1 / AVG Ct MMP1 / AVG Ct MMP2 / AVG Ct MT2A / AVG Ct PCNA / AVG Ct RPL13A (housekeeping gene) / AVG Ct SIRT1 / AVG Ct TGFBI / AVG Ct THBS3 / AVG Ct TNC / AVG Ct VTN: 50 uM Genistein
# Description: EpiDerm-FT™ (EFT-400) tissues were produced and packaged in the MatTek Corporation GMP tissue culture production laboratories following standard procedures. Packaged tissues were stored at 4° C. overnight and then re-equilibrated in EFT-400-ASY medium overnight prior to the start of experiments. The sample size was n=3 for each treatment group in the gene expression experiments; and n=6 (two independent experiments of n=3) for the sunburned cell counts.
# Total RNA was isolated from the EFT-400 tissues (RNAqueous kit, Ambion) (n=3) and utilized for gene expression analysis by quantitative PCR on an SABioscience custom array containing 42 Human Extracellular Matrix (ECM) and Adhesion Molecules RT^2 Profiler™ PCR Array, stress and toxicity genes whose expression, based on MatTek data, are known to be dramatically altered by UV-protective compounds on UV damaged skin. […] Further, there were three internal control spots on the array that corresponded to human genomic DNA contamination (HGDC), positive PCR control (PPC), and reverse transcription control (RTC).
compound,measurement,setting,value
"O=c1c(-c2ccc(O)cc2)coc2cc(O)cc(O)c12 [Genistein, reference compound]",sunburned cell formation,"EFT-400 tissues [1]; 50 μM, 200 mJ/cm2 UVB/29.94 mW/cm2 UVA, 24 hour post irradiation",did not decrease sunburned cell formation to the same extent as 100 ng/ml NELL1
same,number of sunburned cells as compared to UV-only controls,"EFT-400 tissues [1]; pre-treatment 30 minutes prior to UV, continued 24 hours post-irradiation",statistically significant reduction in the number of sunburned cells
same,adverse effects on the EFT-400 tissues,EFT-400 tissues [2],did not produce any noteworthy adverse effects
same,"activity in producing the observed effects (sunburned cells, gene expression)","EFT-400 tissues [3]; NELL1 protein at 100 ng/ml, genistein at 50 μM",most active in producing the observed effects
same,AVG Ct ACTB (housekeeping gene),EFT-400 tissues [3]; No UV,18.95
same,AVG Ct AQP3,EFT-400 tissues [3]; No UV,23.75
same,AVG Ct BCL2L1,EFT-400 tissues [3]; No UV,24.35
same,AVG Ct COL1A1,EFT-400 tissues [3]; No UV,18.66
same,AVG Ct COL4A2,EFT-400 tissues [3]; No UV,26.06
same,AVG Ct COL5A1,EFT-400 tissues [3]; No UV,23.19
same,AVG Ct COL6A1,EFT-400 tissues [3]; No UV,19.41
same,AVG Ct COL6A2,EFT-400 tissues [3]; No UV,19.82
same,AVG Ct COL7A1,EFT-400 tissues [3]; No UV,26.3
same,AVG Ct COL8A1,EFT-400 tissues [3]; No UV,28.27
same,AVG Ct COL11A1,EFT-400 tissues [3]; No UV,27.54
same,AVG Ct COL12A1,EFT-400 tissues [3]; No UV,25.19
same,AVG Ct COL14A1,EFT-400 tissues [3]; No UV,26.08
same,AVG Ct COL15A1,EFT-400 tissues [3]; No UV,25.73
same,AVG Ct COL16A1,EFT-400 tissues [3]; No UV,24.6
same,AVG Ct CYP2E1,EFT-400 tissues [3]; No UV,31.05
same,AVG Ct DSG1,EFT-400 tissues [3]; No UV,20.31
same,AVG Ct ERCC1,EFT-400 tissues [3]; No UV,24.94
same,AVG Ct FN1,EFT-400 tissues [3]; No UV,21.06
same,AVG Ct GAPDH (housekeeping gene),EFT-400 tissues [3]; No UV,17.74
same,AVG Ct GDF15,EFT-400 tissues [3]; No UV,27.52
same,AVG Ct GSTM3,EFT-400 tissues [3]; No UV,29.01
same,AVG Ct HSPA8,EFT-400 tissues [3]; No UV,20.53
same,AVG Ct IL1A,EFT-400 tissues [3]; No UV,25.92
same,AVG Ct IL1B,EFT-400 tissues [3]; No UV,29.03
same,AVG Ct IL8,EFT-400 tissues [3]; No UV,23.12
same,AVG Ct KAL1,EFT-400 tissues [3]; No UV,31.59
same,AVG Ct KRT16,EFT-400 tissues [3]; No UV,17.11
same,AVG Ct LAMA1,EFT-400 tissues [3]; No UV,29.54
same,AVG Ct LAMA2,EFT-400 tissues [3]; No UV,25.35
same,AVG Ct LAMA3,EFT-400 tissues [3]; No UV,24.25
same,AVG Ct LAMA5,EFT-400 tissues [3]; No UV,27.39
same,AVG Ct LAMB1,EFT-400 tissues [3]; No UV,23.3
same,AVG Ct LAMB3,EFT-400 tissues [3]; No UV,25.31
same,AVG Ct LAMC1,EFT-400 tissues [3]; No UV,23.09
same,AVG Ct MMP1,EFT-400 tissues [3]; No UV,22.22
same,AVG Ct MMP2,EFT-400 tissues [3]; No UV,19.2
same,AVG Ct MT2A,EFT-400 tissues [3]; No UV,18.74
same,AVG Ct PCNA,EFT-400 tissues [3]; No UV,23.76
same,AVG Ct RPL13A (housekeeping gene),EFT-400 tissues [3]; No UV,20.65
same,AVG Ct SIRT1,EFT-400 tissues [3]; No UV,26.45
same,AVG Ct TGFBI,EFT-400 tissues [3]; No UV,22.04
same,AVG Ct THBS3,EFT-400 tissues [3]; No UV,29.09
same,AVG Ct TNC,EFT-400 tissues [3]; No UV,22.12
same,AVG Ct VTN,EFT-400 tissues [3]; No UV,32.74
same,expression of IL-1β elevated after UV exposure,EFT-400 tissues [3]; UV-irradiated,decrease in the expression
same,expression of IL-8 elevated after UV exposure,EFT-400 tissues [3]; UV-irradiated,decrease in the expression
same,expression of MMP-1 elevated after UV exposure,EFT-400 tissues [3]; UV-irradiated,decrease in the expression
same,levels of AQP3 RNA after UV exposure,EFT-400 tissues [3]; UV-irradiated,did not have an effect on AQP3 levels
same,reversing the UV-induced effects on gene expression,EFT-400 tissues [3]; UV-irradiated,most effective at reversing the UV-induced effects
same,UV-elevated levels of AQP3,"EFT-400 tissues [3]; UV-irradiated, genistein",did not have the same effect
same,AVG Ct ACTB (housekeeping gene),EFT-400 tissues [3]; UVB + UVA,18.85
same,AVG Ct AQP3,EFT-400 tissues [3]; UVB + UVA,23.01
same,AVG Ct BCL2L1,EFT-400 tissues [3]; UVB + UVA,23.79
same,AVG Ct COL1A1,EFT-400 tissues [3]; UVB + UVA,18.54
same,AVG Ct COL4A2,EFT-400 tissues [3]; UVB + UVA,21.82
same,AVG Ct COL5A1,EFT-400 tissues [3]; UVB + UVA,23.29
same,AVG Ct COL6A1,EFT-400 tissues [3]; UVB + UVA,19.47
same,AVG Ct COL6A2,EFT-400 tissues [3]; UVB + UVA,19.68
same,AVG Ct COL7A1,EFT-400 tissues [3]; UVB + UVA,24.97
same,AVG Ct COL8A1,EFT-400 tissues [3]; UVB + UVA,27.28
same,AVG Ct COL11A1,EFT-400 tissues [3]; UVB + UVA,27.6
same,AVG Ct COL12A1,EFT-400 tissues [3]; UVB + UVA,24.93
same,AVG Ct COL14A1,EFT-400 tissues [3]; UVB + UVA,25.69
same,AVG Ct COL15A1,EFT-400 tissues [3]; UVB + UVA,25.83
same,AVG Ct COL16A1,EFT-400 tissues [3]; UVB + UVA,23.98
same,AVG Ct CYP2E1,EFT-400 tissues [3]; UVB + UVA,29.69
same,AVG Ct DSG1,EFT-400 tissues [3]; UVB + UVA,21.03
same,AVG Ct ERCC1,EFT-400 tissues [3]; UVB + UVA,24.08
same,AVG Ct FN1,EFT-400 tissues [3]; UVB + UVA,20.79
same,AVG Ct GAPDH (housekeeping gene),EFT-400 tissues [3]; UVB + UVA,18.39
same,AVG Ct GDF15,EFT-400 tissues [3]; UVB + UVA,21.74
same,AVG Ct GSTM3,EFT-400 tissues [3]; UVB + UVA,28.37
same,AVG Ct HSPA8,EFT-400 tissues [3]; UVB + UVA,20.14
same,AVG Ct IL1A,EFT-400 tissues [3]; UVB + UVA,25.87
same,AVG Ct IL1B,EFT-400 tissues [3]; UVB + UVA,28.03
same,AVG Ct IL8,EFT-400 tissues [3]; UVB + UVA,20.61
same,AVG Ct KAL1,EFT-400 tissues [3]; UVB + UVA,31.72
same,AVG Ct KRT16,EFT-400 tissues [3]; UVB + UVA,17.92
same,AVG Ct LAMA1,EFT-400 tissues [3]; UVB + UVA,28.49
same,AVG Ct LAMA2,EFT-400 tissues [3]; UVB + UVA,25.42
same,AVG Ct LAMA3,EFT-400 tissues [3]; UVB + UVA,24.01
same,AVG Ct LAMA5,EFT-400 tissues [3]; UVB + UVA,27.71
same,AVG Ct LAMB1,EFT-400 tissues [3]; UVB + UVA,22.85
same,AVG Ct LAMB3,EFT-400 tissues [3]; UVB + UVA,24.92
same,AVG Ct LAMC1,EFT-400 tissues [3]; UVB + UVA,22.69
same,AVG Ct MMP1,EFT-400 tissues [3]; UVB + UVA,20.16
same,AVG Ct MMP2,EFT-400 tissues [3]; UVB + UVA,18.5
same,AVG Ct MT2A,EFT-400 tissues [3]; UVB + UVA,16.4
same,AVG Ct PCNA,EFT-400 tissues [3]; UVB + UVA,23.21
same,AVG Ct RPL13A (housekeeping gene),EFT-400 tissues [3]; UVB + UVA,20.68
same,AVG Ct SIRT1,EFT-400 tissues [3]; UVB + UVA,25.31
same,AVG Ct TGFBI,EFT-400 tissues [3]; UVB + UVA,22.03
same,AVG Ct THBS3,EFT-400 tissues [3]; UVB + UVA,28.97
same,AVG Ct TNC,EFT-400 tissues [3]; UVB + UVA,21.29
same,AVG Ct VTN,EFT-400 tissues [3]; UVB + UVA,32.61
same,"extent of gene expression changes in the absence of UV irradiation, compared to NELL1",EFT-400 tissues [3]; no UV,more changes compared to NELL1
same,gene expression in the absence of UV irradiation,EFT-400 tissues [3]; no UV,some decreases in gene expression
